What was measured:
rats = conditions: cited from earlier work
human β3-AR = target: T1, human β3-AR (Homo sapiens, UniProt P13945); assay: cAMP functional agonist assay (LANCE TR-FRET) in CHO cells expressing cloned human β3-AR; type: cell-based
T1 construct: expressed in transfected cells; host or cells: CHO (Chinese hamster ovary) cells, stably transfected

[1] = intravenous, cystometric studies

T1 sequence (P13945 whole entry): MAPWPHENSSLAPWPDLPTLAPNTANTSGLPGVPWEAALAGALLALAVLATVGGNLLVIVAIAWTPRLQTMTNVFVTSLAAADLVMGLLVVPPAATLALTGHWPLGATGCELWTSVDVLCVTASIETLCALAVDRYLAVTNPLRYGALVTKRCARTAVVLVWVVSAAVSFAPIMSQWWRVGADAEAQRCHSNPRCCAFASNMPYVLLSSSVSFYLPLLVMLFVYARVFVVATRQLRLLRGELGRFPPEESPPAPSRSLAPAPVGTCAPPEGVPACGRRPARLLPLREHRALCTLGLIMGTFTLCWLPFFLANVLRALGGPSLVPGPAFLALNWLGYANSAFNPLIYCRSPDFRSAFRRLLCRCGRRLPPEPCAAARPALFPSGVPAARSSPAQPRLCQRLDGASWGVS

| EC50 (human β3-AR; CHO cells stably expressing cloned human β3-adrenoceptor, cAMP release, read-out: Human β3-AR Agonism EC50) | Fold drop in potency vs. 2-chloropyridine analog (human β3-AR; EC50 of comparative example divided by EC50 of corresponding 2-chloropyridine compound) | Human β3-AR Agonist Activity (%) (human β3-AR; percent maximum activation relative to isoproterenol) | Structure (SMILES) | bladder pressure (rats; intravenous administration) | bladder capacity (rats; [1]) | micturition interval (rats; [1]) | residual urine volume (rats; [1]) |
| --- | --- | --- | --- | --- | --- | --- | --- |
| – | – | – | C[C@H](Cc1ccc2c(c1)OC(C(=O)[O-])(C(=O)[O-])O2)NC[C@H](O)c1cccc(Cl)c1.[Na+].[Na+] [CL316243] | reduces | increases | prolongation | without increasing |
| 65 nM | 2.6 fold | 81% | CN(Cc1nc2ccccc2c(=O)n1C)C(=O)c1ccc(C[C@@H]2CC[C@H]([C@H](O)c3ccccc3)N2)cc1 [Example 45-B, 4-(((2S,5R)-5-((R)-hydroxy(phenyl)methyl)pyrrolidin-2-yl)methyl)-N-methyl-N-((3-methyl-4-oxo-3,4-dihydroquinazolin-2-yl)methyl)benzamide] | – | – | – | – |

— US20160235727A1, “NOVEL PYRROLIDINE DERIVED BETA 3 ADRENERGIC RECEPTOR AGONISTS” (Merck Sharp & Dohme Corp., priority 2013, published 2016)
